This note sets out measurements from US20250388602A1 (Genase Therapeutics B.V., priority 2022, published 2025).

A short description of series [1]: in vitro. As for the experimental part:
Human Liver Microsomal metabolic stability: The microsomal metabolic stability assay utilized pooled human liver microsomes (mixed gender, BD Gentest), with supplemented cofactors NADPH and UDPGA (Solarbio S&T Co., LTD). Two separate experiments were performed as follows: • a) With cofactors (NADPH & UDPGA): 25 μL of 10 mM NADPH and 25 μL of 20 mM UDPGA were added to 197.5 μL of reaction solution (phosphate buffer (final concentration in assay 100 mM), MgCl2 (final concentration in assay (5 mM)), alamethacin (final concentration in assay 0.025 mg/mL) and microsomes (final concentration in assay 0.5 mg/mL). • b) Without cofactors (NADPH & UDPGA): 50 μL of H2O was added to 197.5 μL of reaction solution.
The mixture was pre-warmed at 37° C. for 10 minutes. The reaction was started with the addition of 2.5 μL of 100 μM control compound or test compound solutions. Diclofenac was used as positive control in this study. The final concentration of control compound and test compounds was 1 μM. Aliquots of 25 μL were taken from the reaction solution at 0.5, 5, 15, 30 and 60 minutes. The reaction was stopped by the addition of 5 volumes of cold acetonitrile containing internal standards. Samples were centrifuged at 3,220 g for 40 minutes. An aliquot of 100 μL of the supernatant was mixed with 100 μL of ultra-pure H2O and then used for LC-MS/MS analysis. Peak areas were determined from extracted ion chromatograms. Percent parent remaining was calculated from the area ratio of test compound. The slope value was determined by linear regression of the natural logarithm of percent parent remaining versus incubation time curve.
(§1) Peak areas were determined from extracted ion chromatograms to determine the in vitro half-life (t½) of parent compound by regression analysis of the percent parent disappearance vs. time curve. The in vitro half-life (in vitro t½) was determined from the slope value (in vitro t½=−0.693/k). All calculations were carried out using Microsoft Excel.

Series [2] can be described thus: in vitro. As for the experimental part: Human Hepatocyte metabolic stability: Human hepatocytes (X008000, BioIVT) were freshly thawed prior to the incubations with test compound. Hepatocytes were transferred to 50 mL conical tubes and centrifuged 10 min at 100 g. Thawing medium was removed and replaced by preheated (37° C.) incubation medium (William's E Medium supplemented with GlutaMAX), to yield a hepatocyte density ˜1.5×10^6 cells/mL. Cell viability was determined using AO/PI staining and hepatocytes were diluted using incubation medium to a working density of 0.5×10^6 viable cells/mL. 198 μL of hepatocytes were added into each well of a 96-well plate and placed in the incubator to allow the hepatocytes to warm for 10 minutes. 2 μL test compound or positive control was placed into respective wells of the 96-well plate (final concentration test compound 1 μM) to start the reaction. The plate was returned to the incubator and 25 μL aliquots of the well contents were removed at time points of 0, 15, 30, 60, 90 and 120 minutes. The aliquots were mixed with 6 volumes (150 μL) of acetonitrile containing internal standards (100 nM alprazolam, 200 nM caffeine, and 100 nM tolbutamide) to terminate the reaction. The plate was centrifuged for 20 minutes at 3,200 g. Aliquots of 150 μL of the supernatants were used for LC/MS/MS analysis. All incubations were performed in duplicate.
as §1
This is another data set of the same source.

For the next series, the target named is recombinant human DHODH (Homo sapiens (Human), UniProt Q02127). Put plainly: DHODH enzyme assay (Assay A), DCIP absorbance. Type of series: biochemical. As for the experimental part:
Inhibition of human dihydroorotate dehydrogenase (DHODH) by example compounds as described herein was determined using one of two assays as described below.
DHODH enzyme assays were performed with 6 nM recombinant human DHODH (purified essentially as described by Walse et al., Biochemistry, 47, 8929-8936 (2008)). The reaction mixture consisted of 1 mM DL-dihydroorotic acid (#D7003, Sigma-Aldrich), 100 μM 3,4-dimethoxy-5-methyl-p-benzoquinone (#D9150, Sigma-Aldrich), and 100 μM 2,6-dichlorophenolindophenol sodium salt (DCIP) (#D1878, Sigma-Aldrich) in enzyme buffer (50 mM Tris-HCl pH 8.0, 0.1% Triton X-100, 150 mM KCl). A stock solution of 20 mM DCIP was prepared in enzyme buffer and filtered through Whatman paper just before use. Reactions were performed in a total volume of 100 μL, consisting of 1 μL of compound, 49 μL of enzyme and 50 μL of reaction mixture. Loss in absorbance by chromogen DCIP was measured at 595 nm following a 70 minute incubation at 32° C.

The next series concerns MOLM-13 cells. The series can be described thus: MOLM-13 cell viability (Assay B), Cell Titer-Glo. Type of series: cell-based. The conditions noted are these: Homo sapiens, read-out: IC50 MOLM13 inhibition activity. As for the experimental part:
MOLM-13 cells (an acute myeloid leukemia cell line) were plated in RPMI supplied with 10% FBS and 1% Pen/Strep in 384-well plates at 1,000 cells per well on day 0. On day 1, treatment of the cells with compound (concentration range 10E-5 and 6E-12 M) was initiated in the presence or absence of 100 μM uridine. After 72 hours incubation of the cells with or without test compound, the number of viable cells per well was assessed by Cell Titer-Glo Luminescent Cell Viability Assay (Promega, Madison, WI, USA). […] Each condition was tested in duplicate and the potency of test compounds was determined from two independent experiments.
A general note: ATP-based viability assays read luminescence as a measure of living cells.

Setting [3] is: bins ≥10 nM-<100 nM and <10 nM, read-out: IC50 DHODH inhibition activity.
Where [4] appears, read: MOLM-13, 72 hours, bins ≥10 nM-<100 nM and <10 nM.

Read-outs that look alike come from different tables or passages of the source. A value given as a limit tells only on which side of the number the result lay.

The half-life is the time needed for the level to fall by half in the phase considered. Read a high half-life as slow loss. As usually defined, the IC50 is the concentration that gives 50% inhibition.

Chain of recombinant human DHODH (Q02127 whole entry): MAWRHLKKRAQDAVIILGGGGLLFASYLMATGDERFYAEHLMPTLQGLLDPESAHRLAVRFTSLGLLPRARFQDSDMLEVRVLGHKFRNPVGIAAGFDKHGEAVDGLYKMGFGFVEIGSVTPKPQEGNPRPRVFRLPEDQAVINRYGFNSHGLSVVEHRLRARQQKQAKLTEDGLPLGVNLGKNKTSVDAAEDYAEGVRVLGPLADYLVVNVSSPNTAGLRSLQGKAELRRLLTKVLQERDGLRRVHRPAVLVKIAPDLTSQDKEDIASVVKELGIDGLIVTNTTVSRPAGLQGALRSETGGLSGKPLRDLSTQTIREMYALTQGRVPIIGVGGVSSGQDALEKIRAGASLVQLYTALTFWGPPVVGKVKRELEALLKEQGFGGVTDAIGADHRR

On to `O=C(N[C@H]1COCc2c1cnn2-c1c(F)cccc1Cl)c1ncn2c1CCCC2` (single isomer, unassigned) [Ex-10], for which the HLM % remaining in the series “in vitro [1]” (% remaining at 60 min, 1 μM) came out at 100%. For the same molecule, the half-life at 1 μM in “in vitro [1]” (both, human, pooled liver microsomes) was more than 6.08 h; in “in vitro [2]” (human, hepatocytes), more than 10 h. The molecule also had a hHEPs % remaining in “in vitro [2]” (% remaining at 120 min, 1 μM) of 100%.

Regarding `COc1ccc(F)c(-n2ncc3c2COC[C@H]3NC(=O)c2cc(C)c(C)cn2)c1Cl` [Ex-33, (S)—N-(1-(2-chloro-6-fluoro-3-methoxyphenyl)-1,4,5,7-tetrahydropyrano[3,4-c]pyrazol-4-yl)-4,5-dimethylpicolinamide], the IC50 at recombinant human DHODH (setting [3]) and in the series with MOLM-13 cells (setting [4]) was 10 to 100 nM throughout.

Consider `CCc1c(C(=O)N[C@@H]2COCc3c2cnn3-c2c(C)cccc2Cl)ncn1C` [Ex-35, (S)—N-(1-(2-chloro-6-methylphenyl)-1,4,5,7-tetrahydropyrano[3,4-c]pyrazol-4-yl)-5-ethyl-1-methyl-1H-imidazole-4-carboxamide], for which the IC50 at recombinant human DHODH (setting [3]) and in the series with MOLM-13 cells (setting [4]) was less than 10 nM each time.

Regarding `Cc1cccc(Cl)c1-n1ncc2c1COC[C@H]2NC(=O)c1ncc2n1CCCC2` [Ex-36, (S)—N-(1-(2-chloro-6-methylphenyl)-1,4,5,7-tetrahydropyrano[3,4-c]pyrazol-4-yl)-5,6,7,8-tetrahydroimidazo[1,5-a]pyridine-3-carboxamide], the IC50 on recombinant human DHODH (setting [3]) and with MOLM-13 cells (setting [4]) was less than 10 nM each time.

Take `Cc1cccc(Cl)c1-n1ncc2c1COC[C@H]2NC(=O)c1n[nH]c2c1CCCC2` [Ex-37, (S)—N-(1-(2-chloro-6-methylphenyl)-1,4,5,7-tetrahydropyrano[3,4-c]pyrazol-4-yl)-4,5,6,7-tetrahydro-1H-indazole-3-carboxamide]: the IC50 at recombinant human DHODH (setting [3]) and with MOLM-13 cells (setting [4]) was 10 to 100 nM throughout.

In the case of `Cc1cccc(Cl)c1-n1ncc2c1COC[C@H]2NC(=O)c1noc2c1CCCC2` [Ex-38, (S)—N-(1-(2-chloro-6-methylphenyl)-1,4,5,7-tetrahydropyrano[3,4-c]pyrazol-4-yl)-4,5,6,7-tetrahydrobenzo[d]isoxazole-3-carboxamide], the half-maximal inhibitory concentration (IC50) at recombinant human DHODH (setting [3]) and in the series on MOLM-13 cells (setting [4]) was less than 10 nM in each case.

As for `CCc1c(C(=O)N[C@@H]2COCc3c2cnn3-c2c(C)cccc2Cl)n[nH]c1C` [Ex-39, (S)—N-(1-(2-chloro-6-methylphenyl)-1,4,5,7-tetrahydropyrano[3,4-c]pyrazol-4-yl)-4-ethyl-5-methyl-1H-pyrazole-3-carboxamide], the IC50 lay within 10 to 100 nM on recombinant human DHODH (setting [3]) and 10 to 100 nM with MOLM-13 cells (MOLM-13, 72 h).

Take `O=C(N[C@@H]1COCc2c1cnn2-c1cccc(C(F)(F)F)c1Cl)c1ncn2c1CCCC2` [Ex-50, (S)—N-(1-(2-chloro-3-(trifluoromethyl)phenyl)-1,4,5,7-tetrahydropyrano[3,4-c]pyrazol-4-yl)-5,6,7,8-tetrahydroimidazo[1,5-a]pyridine-1-carboxamide]: the IC50 on recombinant human DHODH (setting [3]) was 10 to 100 nM; in the series on MOLM-13 cells (setting [4]), less than 10 nM.

`COc1cccc(Cl)c1-n1ncc2c1COC[C@H]2NC(=O)c1ncn2c1CCCC2` [Ex-60, (S)—N-(1-(2-chloro-6-methoxyphenyl)-1,4,5,7-tetrahydropyrano[3,4-c]pyrazol-4-yl)-5,6,7,8-tetrahydroimidazo[1,5-a]pyridine-1-carboxamide]: the half-maximal inhibitory concentration (IC50) at recombinant human DHODH (setting [3]) and with MOLM-13 cells (setting [4]) was 10 to 100 nM throughout.

In the case of `O=C(N[C@@H]1COCc2c1cnn2-c1cccc(O)c1Cl)c1ncn2c1CCCC2` [Ex-62, (S)—N-(1-(2-chloro-3-hydroxyphenyl)-1,4,5,7-tetrahydropyrano[3,4-c]pyrazol-4-yl)-5,6,7,8-tetrahydroimidazo[1,5-a]pyridine-1-carboxamide], the IC50 on recombinant human DHODH fell in the range of 10 to 100 nM; in the series with MOLM-13 cells (MOLM-13, 72 h), 10 to 100 nM.

Regarding `CN(C)C(=O)COc1cccc(-n2ncc3c2COC[C@H]3NC(=O)c2ncn3c2CCCC3)c1Cl` [Ex-64, (S)—N-(1-(2-chloro-3-(2-(dimethylamino)-2-oxoethoxy)phenyl)-1,4,5,7-tetrahydropyrano[3,4-c]pyrazol-4-yl)-5,6,7,8-tetrahydroimidazo[1,5-a]pyridine-1-carboxamide], the IC50 at recombinant human DHODH and in the series on MOLM-13 cells (setting [4]) was 10 to 100 nM in each case.

For `COCCOc1cccc(-n2ncc3c2COC[C@H]3NC(=O)c2ncn3c2CCCC3)c1Cl` [Ex-67, (S)—N-(1-(2-chloro-3-(2-methoxyethoxy)phenyl)-1,4,5,7-tetrahydropyrano[3,4-c]pyrazol-4-yl)-5,6,7,8-tetrahydroimidazo[1,5-a]pyridine-1-carboxamide], the concentration for half-maximal inhibition (IC50) at recombinant human DHODH (read-out: IC50 DHODH inhibition activity) and in the series on MOLM-13 cells (setting [4]) was less than 10 nM throughout.

For `O=C(N[C@@H]1COCc2c1cnn2-c1cccc(OCCO)c1Cl)c1ncn2c1CCCC2` [Ex-68, (S)—N-(1-(2-chloro-3-(2-hydroxyethoxy)phenyl)-1,4,5,7-tetrahydropyrano[3,4-c]pyrazol-4-yl)-5,6,7,8-tetrahydroimidazo[1,5-a]pyridine-1-carboxamide], the IC50 at recombinant human DHODH was 10 to 100 nM; in the series with MOLM-13 cells (MOLM-13, 72 h) it was 10 to 100 nM.

Turning to `O=C(N[C@@H]1COCc2c1cnn2-c1cccc(C(=O)N2CCCC2)c1Cl)c1ncn2c1CCCC2` [Ex-71, (S)—N-(1-(2-chloro-3-(pyrrolidine-1-carbonyl)phenyl)-1,4,5,7-tetrahydropyrano[3,4-c]pyrazol-4-yl)-5,6,7,8-tetrahydroimidazo[1,5-a]pyridine-1-carboxamide], the half-maximal inhibitory concentration (IC50) at recombinant human DHODH (setting [3]) and with MOLM-13 cells (setting [4]) was 10 to 100 nM in each case.

For `O=C(N[C@@H]1COCc2c1cnn2-c1cccc(C(=O)N2CCCCC2)c1Cl)c1ncn2c1CCCC2` [Ex-72, (S)—N-(1-(2-chloro-3-(piperidine-1-carbonyl)phenyl)-1,4,5,7-tetrahydropyrano[3,4-c]pyrazol-4-yl)-5,6,7,8-tetrahydroimidazo[1,5-a]pyridine-1-carboxamide], the half-inhibitory concentration (IC50) at recombinant human DHODH (setting [3]) and in the series on MOLM-13 cells (setting [4]) was less than 10 nM each time.

In the case of `O=C(N[C@@H]1COCc2c1cnn2-c1cccc(C(=O)N2CCOCC2)c1Cl)c1ncn2c1CCCC2` [Ex-73, (S)—N-(1-(2-chloro-3-(morpholine-4-carbonyl)phenyl)-1,4,5,7-tetrahydropyrano[3,4-c]pyrazol-4-yl)-5,6,7,8-tetrahydroimidazo[1,5-a]pyridine-1-carboxamide], the IC50 on recombinant human DHODH and in the series on MOLM-13 cells (setting [4]) was 10 to 100 nM each time.

On to `CCN(CC)C(=O)c1cccc(-n2ncc3c2COC[C@H]3NC(=O)c2ncn3c2CCCC3)c1Cl` [Ex-74, (S)—N-(1-(2-chloro-3-(diethylcarbamoyl)phenyl)-1,4,5,7-tetrahydropyrano[3,4-c]pyrazol-4-yl)-5,6,7,8-tetrahydroimidazo[1,5-a]pyridine-1-carboxamide], for which the IC50 at recombinant human DHODH (setting [3]) and with MOLM-13 cells (setting [4]) was 10 to 100 nM in each case.
